Test results reported in patent US8563540B2, “Pyrido[3,2-d]pyrimidine PI3K delta inhibitor compounds and methods of use” (Genetech, Inc., priority 2010, dated 2013).

How the values were obtained:
p110 alpha = target: T1, p110 alpha (Homo sapiens, UniProt P42336); assay: PI3K Isoform Inhibition Assay, p110 alpha (delta/alpha selectivity); conditions: ratio of biochemical IC50 values
T1 construct: purchased Upstate Group, Millipore; Dundee, UK
Protocol: (§1) PI3K enzymatic activity was assayed by measuring the amount of product phosphatidylinositol […] (PIP3) formed from substrate 4,5 phosphatidylinositol 4,5-phosphate (PIP2) using a fluorescence polarization displacement assay. The decrease in fluorescence polarization of a fluorescent PIP3 probe is measured as it is displaced from a PIP3-binding protein GRP-1 detector by PI3K-catalyzed product. […] The kinase reactions were initiated by the addition of 40 ng/mL p110α/p85α, 300 ng/mL p110β/p85α, 40 ng/mL p110γ, or 40 ng/mL […] (Upstate Group, Millipore; Dundee, UK), and 10 μM PIP2 (Echelon Biosciences) to the wells. […] After 60 minutes of incubation at room temperature to allow equilibration of labeled and unlabeled PIP3 binding, the parallel and perpendicular components of the fluorescence emissions from each sample were measured at an excitation wavelength of 530 nm and an emission wavelength of 590 nm using an Envision fluorescent plate reader with a rhodamine filter (PerkinElmer Life and Analytical Sciences; Wellesley, Mass.). The assay is capable of detecting 0.1-2.0 μM PIP3 product. The IC50 values were obtained by fitting the dose-dependent inhibition data to a 4-parameter equation using Assay Explorer software (MDL, San Ramon, Calif.).
(§2) The Formula I compound was serially diluted in 100% DMSO. The kinase reaction was incubated for 1 h at room temperature, and the reaction was terminated by the addition of PBS. IC50 values were subsequently determined using sigmoidal dose-response curve fit (variable slope).
The same protocol may be used to establish IC50 values for p110α (alpha) PI3K binding. […]

[1] = system: production of CD69 by B lymphocytes in human whole blood activated with anti-human IgM; assay: CD69 Whole Blood Assay; format: cell-based; conditions: Lymphocyte, anti-IgM stimulated, CD69 positive of CD20 positive cells, 20 hours
Protocol: Human blood is obtained from healthy volunteers, with the following restrictions: 1 week drug-free, non-smokers.
Human whole blood—HWB (100 μl) is added to each well. After mixing the plates are incubated at 37° C., 5% CO2, 100% humidity for 30 minutes. Goat F(ab′)2 anti-human IgM (10 μl of a 500 μg/ml solution, 50 μg/ml final) is added to each well (except the no-stimulus wells) with mixing and the plates are incubated for an additional 20 hours. […] Include induced control, unstained and single stains for compensation adjustments and initial voltage settings. […] Results are initially analyzed by FACS analysis software (Flow Jo).

p110 delta = target: T2, p110 delta (Homo sapiens, UniProt O00329); assay: PI3K Isoform Inhibition Assay, p110 delta; format: biochemical; conditions: PI3K isoform inhibition assay of Example 901
T2 construct: purchased Upstate Group, Millipore; Dundee, UK
Protocol: as §1, §2
The four Class I PI 3-kinases are cloned into baculovirus vectors as follows: […]

T2 sequence (O00329 whole entry, canonical isoform): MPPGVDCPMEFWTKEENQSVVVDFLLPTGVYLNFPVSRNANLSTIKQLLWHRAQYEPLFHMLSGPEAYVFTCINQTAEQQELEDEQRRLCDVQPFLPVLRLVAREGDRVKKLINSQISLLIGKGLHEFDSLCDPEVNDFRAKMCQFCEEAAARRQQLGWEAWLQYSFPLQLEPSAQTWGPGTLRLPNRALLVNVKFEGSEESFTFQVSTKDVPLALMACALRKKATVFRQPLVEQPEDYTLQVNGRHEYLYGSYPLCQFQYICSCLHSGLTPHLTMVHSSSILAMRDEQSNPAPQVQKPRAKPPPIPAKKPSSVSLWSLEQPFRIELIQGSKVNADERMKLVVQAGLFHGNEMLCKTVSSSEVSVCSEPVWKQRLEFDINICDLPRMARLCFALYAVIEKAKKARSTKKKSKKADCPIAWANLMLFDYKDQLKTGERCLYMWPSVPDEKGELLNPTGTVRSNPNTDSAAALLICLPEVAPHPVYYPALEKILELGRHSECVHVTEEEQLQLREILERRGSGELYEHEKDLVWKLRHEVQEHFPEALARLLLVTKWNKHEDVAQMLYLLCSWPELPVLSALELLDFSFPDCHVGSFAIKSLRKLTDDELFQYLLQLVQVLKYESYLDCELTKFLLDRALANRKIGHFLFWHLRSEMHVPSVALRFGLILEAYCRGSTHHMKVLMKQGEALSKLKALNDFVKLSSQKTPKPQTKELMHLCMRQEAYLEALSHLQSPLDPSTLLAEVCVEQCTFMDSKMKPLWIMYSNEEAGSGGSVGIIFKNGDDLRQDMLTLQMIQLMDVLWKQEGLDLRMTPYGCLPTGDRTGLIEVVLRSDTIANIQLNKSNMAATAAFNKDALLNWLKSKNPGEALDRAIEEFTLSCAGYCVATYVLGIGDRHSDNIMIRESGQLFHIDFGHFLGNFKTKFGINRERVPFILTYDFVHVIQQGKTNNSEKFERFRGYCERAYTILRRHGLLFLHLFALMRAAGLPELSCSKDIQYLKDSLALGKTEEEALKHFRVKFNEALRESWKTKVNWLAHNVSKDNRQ
T2 sequence (P27986 whole entry partner, canonical isoform): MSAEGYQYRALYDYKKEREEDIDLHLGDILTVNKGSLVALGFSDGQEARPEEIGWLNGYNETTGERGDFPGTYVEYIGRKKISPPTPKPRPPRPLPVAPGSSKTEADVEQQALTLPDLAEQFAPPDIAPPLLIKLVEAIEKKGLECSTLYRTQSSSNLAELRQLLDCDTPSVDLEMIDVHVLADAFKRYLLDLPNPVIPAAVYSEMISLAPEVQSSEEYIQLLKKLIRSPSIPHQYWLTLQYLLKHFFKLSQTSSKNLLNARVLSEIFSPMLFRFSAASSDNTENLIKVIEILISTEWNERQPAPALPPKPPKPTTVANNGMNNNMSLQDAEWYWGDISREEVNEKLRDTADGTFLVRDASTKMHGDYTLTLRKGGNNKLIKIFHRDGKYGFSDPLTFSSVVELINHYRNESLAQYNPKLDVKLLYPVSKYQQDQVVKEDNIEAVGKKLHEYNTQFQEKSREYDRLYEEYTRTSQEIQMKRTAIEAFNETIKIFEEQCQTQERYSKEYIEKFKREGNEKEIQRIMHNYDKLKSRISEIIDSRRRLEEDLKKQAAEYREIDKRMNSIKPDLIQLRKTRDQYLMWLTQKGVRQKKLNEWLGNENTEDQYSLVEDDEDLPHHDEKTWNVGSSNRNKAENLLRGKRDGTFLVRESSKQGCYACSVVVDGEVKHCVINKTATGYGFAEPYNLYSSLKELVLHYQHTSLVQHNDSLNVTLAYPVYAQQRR
T1 sequence (P42336 whole entry, canonical isoform): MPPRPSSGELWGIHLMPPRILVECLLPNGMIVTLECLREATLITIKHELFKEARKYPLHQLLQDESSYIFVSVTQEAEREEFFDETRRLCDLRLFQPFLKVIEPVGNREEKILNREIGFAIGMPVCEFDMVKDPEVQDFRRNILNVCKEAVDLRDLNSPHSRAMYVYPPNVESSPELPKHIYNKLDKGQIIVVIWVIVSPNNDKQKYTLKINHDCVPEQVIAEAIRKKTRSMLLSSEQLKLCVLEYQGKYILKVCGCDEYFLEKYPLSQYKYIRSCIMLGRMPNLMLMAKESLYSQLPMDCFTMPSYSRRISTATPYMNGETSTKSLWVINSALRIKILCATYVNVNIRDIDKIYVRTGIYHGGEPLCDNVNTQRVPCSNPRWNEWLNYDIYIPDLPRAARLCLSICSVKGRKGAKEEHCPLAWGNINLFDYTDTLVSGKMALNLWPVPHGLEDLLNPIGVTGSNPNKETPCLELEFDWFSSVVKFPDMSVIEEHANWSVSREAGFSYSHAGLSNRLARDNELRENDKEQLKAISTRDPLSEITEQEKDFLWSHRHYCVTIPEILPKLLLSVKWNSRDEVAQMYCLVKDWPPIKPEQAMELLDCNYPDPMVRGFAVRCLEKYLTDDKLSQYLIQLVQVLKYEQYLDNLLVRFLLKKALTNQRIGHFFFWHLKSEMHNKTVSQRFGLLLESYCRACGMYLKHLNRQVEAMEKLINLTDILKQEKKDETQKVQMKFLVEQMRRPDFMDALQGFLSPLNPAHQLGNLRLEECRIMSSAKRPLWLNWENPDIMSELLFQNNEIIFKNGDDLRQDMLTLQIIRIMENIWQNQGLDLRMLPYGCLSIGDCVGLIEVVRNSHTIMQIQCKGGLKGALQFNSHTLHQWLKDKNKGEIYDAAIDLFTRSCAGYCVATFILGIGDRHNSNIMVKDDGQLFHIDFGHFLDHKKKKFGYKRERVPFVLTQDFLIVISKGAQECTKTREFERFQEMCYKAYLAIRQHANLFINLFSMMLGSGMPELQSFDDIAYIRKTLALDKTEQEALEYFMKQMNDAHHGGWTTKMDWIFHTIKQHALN
T1 sequence (P27986 whole entry partner, canonical isoform): as the sequence (P27986 whole entry partner, canonical isoform) above

`CC(C)c1nc2ccccc2n1-c1nc(N2CCOCC2)c2nc(CN3CCC(C(C)(C)O)CC3)ccc2n1` [Compound 112, 2-(1-((2-(2-isopropyl-1H-benzo[d]imidazol-1-yl)-4-morpholinopyrido[3,2-d]pyrimidin-6-yl)methyl)piperidin-4-yl)propan-2-ol] was tested, and the “IC50 p110 alpha/IC50 p110 delta” value (p110 alpha) was 44, the IC50 [1] was 83.8 nM and the IC50 (p110 delta) was 5.33 nM.
In the case of `CO[C@@H](C)c1nc2ccccc2n1-c1nc(N2CCOCC2)c2nc(CN3CCC(C(C)(C)O)CC3)ccc2n1` [Compound 114, (S)-2-(1-((2-(2-(1-methoxyethyl)-1H-benzo[d]imidazol-1-yl)-4-morpholinopyrido[3,2-d]pyrimidin-6-yl)methyl)piperidin-4-yl)propan-2-ol], the “IC50 p110 alpha/IC50 p110 delta” value (p110 alpha) is reported as 53, the IC50 [1] is reported as 12 nM and the IC50 (p110 delta) is reported as 1.78 nM.
With `O=S1(=O)CCN(C2CN(Cc3ccc4nc(-c5c(F)ccc6[nH]ccc56)nc(N5CCOCC5)c4n3)C2)CC1` [Compound 129, 4-(2-(5-fluoro-1H-indol-4-yl)-6-((3-(1,1-dioxo)thiomorpholinoazetidin-1-yl)methyl)pyrido[3,2-d]pyrimidin-4-yl)morpholine] the “IC50 p110 alpha/IC50 p110 delta” value (p110 alpha) was 440 and the IC50 (p110 delta) was 0.845 nM.
With `Fc1ccc2[nH]ccc2c1-c1nc(N2CCOCC2)c2nc(CN3CCC(C4COC4)CC3)ccc2n1` [Compound 130, 4-(2-(5-fluoro-1H-indol-4-yl)-6-((4-(oxetan-3-yl)piperidin-1-yl)methyl)pyrido[3,2-d]pyrimidin-4-yl)morpholine] the “IC50 p110 alpha/IC50 p110 delta” value (p110 alpha) was 352 and the IC50 (p110 delta) was 3.12 nM.
With `CCc1nc2ccccc2n1-c1nc(N2CCOCC2)c2nc(CN3CC(N4CCOCC4)C3)ccc2n1` [Compound 131, 4-(1-((2-(2-ethyl-1H-benzo[d]imidazol-1-yl)-4-morpholinopyrido[3,2-d]pyrimidin-6-yl)methyl)azetidin-3-yl)morpholine] the “IC50 p110 alpha/IC50 p110 delta” value (p110 alpha) was 36 and the IC50 (p110 delta) was 2.23 nM.
`Cc1cc(-c2nc(N3CCOCC3)c3nc(CN4CCC(C(C)(C)O)CC4)ccc3n2)cnc1N` [Compound 132, 2-(1-((2-(6-amino-5-methylpyridin-3-yl)-4-morpholinopyrido[3,2-d]pyrimidin-6-yl)methyl)piperidin-4-yl)propan-2-ol] was tested, and the “IC50 p110 alpha/IC50 p110 delta” value (p110 alpha) was 10 and the IC50 (p110 delta) was 22.4 nM.
`CC(C)(O)C1CCN(Cc2ccc3nc(-c4c[nH]c5ccccc45)nc(N4CCOCC4)c3n2)CC1` [Compound 133, 2-(1-((2-(1H-indol-3-yl)-4-morpholinopyrido[3,2-d]pyrimidin-6-yl)methyl)piperidin-4-yl)propan-2-ol] was tested, and the “IC50 p110 alpha/IC50 p110 delta” value (p110 alpha) was 22 and the IC50 (p110 delta) was 23.8 nM.
With `CCc1nc2ccccc2n1-c1nc(N2CCOCC2)c2nc(CN3CC(N4CCNC(=O)C4)C3)ccc2n1` [Compound 134, 4-(1-((2-(2-ethyl-1H-benzo[d]imidazol-1-yl)-4-morpholinopyrido[3,2-d]pyrimidin-6-yl)methyl)azetidin-3-yl)piperazin-2-one] the “IC50 p110 alpha/IC50 p110 delta” value (p110 alpha) was 10.9 and the IC50 (p110 delta) was 3.56 nM.
With `Cc1cc2ccccc2n1-c1nc(N2CCOCC2)c2nc(CN3CCC(C(C)(C)O)CC3)ccc2n1` [Compound 135, 2-(1-((2-(2-methyl-1H-indol-1-yl)-4-morpholinopyrido[3,2-d]pyrimidin-6-yl)methyl)piperidin-4-yl)propan-2-ol] the “IC50 p110 alpha/IC50 p110 delta” value (p110 alpha) was 82 and the IC50 (p110 delta) was 25.6 nM.
With `CC(C)n1ncnc1-c1ccc2nc(-c3c(F)ccc4[nH]ccc34)nc(N3CCOCC3)c2n1` [Compound 141, 4-(2-(5-fluoro-1H-indol-4-yl)-6-(1-isopropyl-1H-1,2,4-triazol-5-yl)pyrido[3,2-d]pyrimidin-4-yl)morpholine] the “IC50 p110 alpha/IC50 p110 delta” value (p110 alpha) was 9.4 and the IC50 (p110 delta) was 63.6 nM.
`CC(C)(O)CNCc1ccc2nc(-c3c(F)ccc4[nH]ccc34)nc(N3CCOCC3)c2n1` [Compound 143, 1-((2-(5-fluoro-1H-indol-4-yl)-4-morpholinopyrido[3,2-d]pyrimidin-6-yl)methylamino)-2-methylpropan-2-ol] was tested, and the “IC50 p110 alpha/IC50 p110 delta” value (p110 alpha) was 58 and the IC50 (p110 delta) was 35.9 nM.
In the case of `CC(C)(O)C1CCN(Cc2ccc3nc(-n4c(C(F)(F)F)nc5ccccc54)nc(N4CCOCC4)c3n2)CC1` [Compound 156, 2-(1-((4-morpholino-2-(2-(trifluoromethyl)-1H-benzo[d]imidazol-1-yl)pyrido[3,2-d]pyrimidin-6-yl)methyl)piperidin-4-yl)propan-2-ol], the “IC50 p110 alpha/IC50 p110 delta” value (p110 alpha) is reported as 42 and the IC50 (p110 delta) is reported as 2.86 nM.
In the case of `Fc1ccc2[nH]ccc2c1-c1ccc2nc(N3CCOCC3)nc(N3CCOCC3)c2n1` [Compound 159, 4,4′-(6-(5-fluoro-1H-indol-4-yl)pyrido[3,2-d]pyrimidine-2,4-diyl)dimorpholine], the “IC50 p110 alpha/IC50 p110 delta” value (p110 alpha) is reported as 1.4 and the IC50 (p110 delta) is reported as 873 nM.
For `CNc1ncccc1-c1nc(N2CCOCC2)c2nc(CN3CCC(C(C)(C)O)CC3)ccc2n1` [Compound 160, 2-(1-((2-(2-(methylamino)pyridin-3-yl)-4-morpholinopyrido[3,2-d]pyrimidin-6-yl)methyl)piperidin-4-yl)propan-2-ol], the “IC50 p110 alpha/IC50 p110 delta” value (p110 alpha) was 21 and the IC50 (p110 delta) was 98.3 nM.
In the case of `CC(C)(O)C1CCN(Cc2ccc3nc(-c4cccc5nccn45)nc(N4CCOCC4)c3n2)CC1` [Compound 161, 2-(1-((2-(imidazo[1,2-a]pyridin-5-yl)-4-morpholinopyrido[3,2-d]pyrimidin-6-yl)methyl)piperidin-4-yl)propan-2-ol], the “IC50 p110 alpha/IC50 p110 delta” value (p110 alpha) is reported as 17.8 and the IC50 (p110 delta) is reported as 118 nM.
For `CC1(COc2ccc3nc(-c4cnc(N)nc4)nc(N4CCOCC4)c3n2)COC1` [Compound 188, 5-(6-((3-methyloxetan-3-yl)methoxy)-4-morpholinopyrido[3,2-d]pyrimidin-2-yl)pyrimidin-2-amine], the “IC50 p110 alpha/IC50 p110 delta” value (p110 alpha) was 0.18 and the IC50 (p110 delta) was 8.69 nM.
For `Cc1cnc2c(N3CCOCC3)nc(-c3cnc(N)nc3)nc2c1` [Compound 197, 5-(7-methyl-4-morpholinopyrido[3,2-d]pyrimidin-2-yl)pyrimidin-2-amine], the “IC50 p110 alpha/IC50 p110 delta” value (p110 alpha) was 0.20 and the IC50 (p110 delta) was 5.72 nM.
For `Nc1ncc(-c2nc(N3CCOCC3)c3ncc(C4CC4)cc3n2)cn1` [Compound 198, 5-(7-cyclopropyl-4-morpholinopyrido[3,2-d]pyrimidin-2-yl)pyrimidin-2-amine], the “IC50 p110 alpha/IC50 p110 delta” value (p110 alpha) was 0.27 and the IC50 (p110 delta) was 3.88 nM.
`COC1CN(c2cnc3c(N4CCOCC4)nc(N4CC(OC)C4)nc3c2)C1` [Compound 199, 4-(2,7-bis(3-methoxyazetidin-1-yl)pyrido[3,2-d]pyrimidin-4-yl)morpholine] was tested, and the “IC50 p110 alpha/IC50 p110 delta” value (p110 alpha) was 0.95 and the IC50 (p110 delta) was 728 nM.
`COC1CN(c2cnc3c(N4CCOCC4)nc(-c4cnc(N)nc4)nc3c2)C1` [Compound 200, 5-(7-(3-methoxyazetidin-1-yl)-4-morpholinopyrido[3,2-d]pyrimidin-2-yl)pyrimidin-2-amine] was tested, and the “IC50 p110 alpha/IC50 p110 delta” value (p110 alpha) was 0.97 and the IC50 (p110 delta) was 716 nM.
`CC(C)Oc1cnc2c(N3CCOCC3)nc(-c3cnc(N)nc3)nc2c1` [Compound 201, 5-(7-isopropoxy-4-morpholinopyrido[3,2-d]pyrimidin-2-yl)pyrimidin-2-amine] was tested, and the “IC50 p110 alpha/IC50 p110 delta” value (p110 alpha) was 0.34 and the IC50 (p110 delta) was 4.91 nM.
